Numbers after ± are expanded uncertainties.
Conditions: Liquid, Ebulliometric method (Recirculating still)

CCC(C)OC(C)=O (stereo not drawn) [1-methylpropyl ethanoate]
vapor or sublimation pressure (385.15 K): 101.3 ± 1 kPa

CCCCCCC [heptane]
vapor or sublimation pressure (371.58 K): 100 ± 1 kPa

CC1CCCCC1 [methylcyclohexane]
vapor or sublimation pressure (374.08 K): 101.3 ± 1 kPa

— the NIST ThermoML archive (doi:10.1021/acs.jced.7b00999)
